Assays:
[1] = Crystal form stability on standing under normal temperature and pressure; format: physicochemical; conditions: normal temperature and pressure conditions
[2] = Pharmacokinetic experiment of the crystal form in Beagle dogs; format: in vivo
Protocol: The crystal form of the compound of formula (I) of the present invention is filled into capsules for oral administration.
8-12 kg male Beagle dogs were taken, and 3 as a group. Capsules containing the test sample were orally administered at a dose of 10 mg/kg and the bloods were collected at time points of 0.25, 0.5, 1.0, 2.0, 4.0, 6.0, 8.0 and 24 h. Standard curve was plotted based on concentrations of the samples in a suitable range, the concentration of the test sample in the plasma sample was measured and quantified by AB SCIEX API4000 LC-MS/MS at MRM mode. Pharmacokinetic parameters were calculated according to drug concentration-time curve using a noncompartmental method by WinNonLin 6.3 software.

[3] = Stability: high-temperature experiment; format: physicochemical; conditions: for Purity: HPLC
Protocol: (1) High-temperature experiment: appropriate amount of the test sample was added into a flat weighing bottle, divided into ≤5 mm thick thin layer. The bottle was placed at 60° C.±2° C. for 30 days. Samples were taken on the 6th, 10th, and 30th day, and tested according to the key stability inspection items: the color of the samples were observed, the purities of the samples were determined by HPLC.

[4] = Stability: high-humidity experiment; format: physicochemical; conditions: for Appearance / Purity: High humidity (RH92.5%); for Purity: HPLC
Protocol: (2) High-humidity experiment: a batch of the test sample was added into a flat weighing bottle, divided into ≤5 mm thick thin layer. The bottle was placed at 25° C. and RH for 90%±5% for 30 days. Samples were taken on the 6th, 10th, and 30th day, and tested according to the key stability inspection items: the color of the samples were observed, the purities of the samples were determined by HPLC.

[5] = Stability: illumination experiment; format: physicochemical; conditions: for Appearance / Purity: Illumination; for Purity: HPLC
Protocol: (3) Illumination experiment: a batch of the test sample was added into a flat weighing bottle, divided into ≤5mm thick thin layer. The bottle was opened and placed in a light box (with UV lamp) under the condition of illuminance of 4500±500 lx and ultraviolet light ≥0.7w/m^2 for 30 days. Samples were taken on the 6th, 13th, and 30th day, the purities of the samples were determined by HPLC.

[6] = Stability: accelerated experiment; format: physicochemical; conditions: for Appearance / Purity / Moisture content: 40 ± 2° C./75% ± 5% RH; for Purity: HPLC; for Moisture content: by TGA
Protocol: (4) Accelerated experiment: appropriate amount of the test sample was packed with a single-layer PE and aluminum foil, the sample was placed at 40±2° C./75%±5% RH for 6 months. Samples were taken on the 1st, 2nd, 3rd and 6th month. The color of the samples were observed, the purities of the samples were determined by HPLC, and the moisture content was determined by TGA.

[7] = Hygroscopicity experiment (dynamic moisture adsorption, DVS); format: physicochemical
Protocol: The hygroscopicity of the present invention was measured by a DVS INT-Std dynamic moisture and gas adsorption analyzer from Surface Measurement Systems, UK. The humidity test range was 0%-95%, the airflow rate was 200 mL/min, and the temperature was 25° C. One test point was taken for every 5% increase in humidity.
An appropriate amount of the test sample was taken, the hygroscopicity was tested by dynamic moisture adsorption device.

Solubility experiment = format: physicochemical; conditions: comparison in words, values not given
Protocol: The solubility of the present invention was determined using an Agilent 1200 High Performance Liquid Chromatograph DAD/VWD detector with an Agilent XDB-C18 model (4.6×50 mm, 5 μm). The detection wavelength was 266 nm, the flow rate was 1.0 mL/min, and the column temperature was 35° C. The mobile phase A was acetonitrile−0.01 M ammonium acetate=10:90 (V:V), and the analysis method was acetonitrile−mobile phase A=70:30 (V:V). The running time was 10 minutes.

[8] = dog, plasma, po, male Beagle dogs, capsules orally, 10 mg/kg
[9] = 0 day (start, common to all conditions of Table 2)
[10] = High temperature (60° C.), 6th day
[11] = High temperature (60° C.), 10th day
[12] = High temperature (60° C.), 30th day

Q: With Cn1c(=O)c(C(=O)NCC(=O)O)c(O)c2ccc(Oc3ccccc3)cc21 [crystal form II, 2-(4-hydroxy-1-methyl-2-oxo-7-phenoxy-1,2-dihydroquinoline-3-carboxamido)acetic acid] as the compound, how does the “crystal transformation on standing” value [1] read?
A: easy to undergo crystal transformation

Q: What does the source list for Cn1c(=O)c(C(=O)NCC(=O)O)c(O)c2ccc(Oc3ccccc3)cc21 [Example 1, 2-(4-hydroxy-1-methyl-2-oxo-7-phenoxy-1,2-dihydroquinoline-3-carboxamido)acetic acid]?
A: exposure in beagle dogs ([2]; beagle dogs, oral capsules 10 mg/kg, conclusion from Table 1): larger exposure; AUC(0-t) [2, 8]: 9300 ng·h/mL; Cmax [2, 8]: 2810 ng/mL; Tmax [2, 8]: 1.17 h; Appearance [3, 9]: off-white; Purity [3, 9]: 99.76%; Appearance [3, 10]: off-white; Purity [3, 10]: 99.77%; Appearance [3, 11]: off-white; Purity [3, 11]: 99.78%; Appearance [3, 12]: off-white; Purity [3, 12]: 99.77%; change of appearance and purity ([3]; high temperature (60° C.), 30 days): no obvious changes; Appearance ([4]; 6th day): off-white; Purity ([4]; 6th day): 99.78%; Appearance ([4]; 10th day): off-white; Purity ([4]; 10th day): 99.77%; Appearance ([4]; 30th day): off-white; Purity ([4]; 30th day): 99.76%; change of appearance and purity ([4]; high humidity (25° C., RH 90%±5%), 30 days): no obvious changes; Appearance ([5]; 6th day): off-white; Purity ([5]; 6th day): 99.77%; Appearance ([5]; 13th day): off-white; Purity ([5]; 13th day): 99.77%; Appearance ([5]; 30th day): off-white; Purity ([5]; 30th day): 99.72%; change of appearance and purity ([5]; lighting conditions, 30 days): no obvious changes; Appearance ([6]; 0 month): off-white; Purity ([6]; 0 month): 99.78%; Moisture content ([6]; 0 month): 0.04%; Appearance ([6]; 1st month): off-white; Purity ([6]; 1st month): 99.77%; Moisture content ([6]; 1st month): 0.06%; Appearance ([6]; 2nd month): off-white; Purity ([6]; 2nd month): 99.78%; Moisture content ([6]; 2nd month): 0.07%; Appearance ([6]; 3rd month): off-white; Purity ([6]; 3rd month): 99.78%; Moisture content ([6]; 3rd month): 0.08%; Appearance ([6]; 6th month): off-white; Purity ([6]; 6th month): 99.78%; Moisture content ([6]; 6th month): 0.12%; change of appearance, purity and moisture content ([6]; accelerated experimental conditions (40±2° C./75%±5% RH, 6 months)): no obvious changes; hygroscopicity feature ([7]; Chinese Pharmacopoeia 2015 General Principle 9103 classes (Table 5)): lightly hygroscopic; Weight gain at 60% relative humidity ([7]; DVS, 25° C., 60% relative humidity): 0.27%; Weight gain at 80% relative humidity ([7]; DVS, 25° C., 80% relative humidity): 0.38%; Weight gain at 95% relative humidity ([7]; DVS, 25° C., 95% relative humidity): 0.57%; crystal transformation on standing ([1]; listed as crystal form I): does not undergo crystal transformation; solubility compared with crystal form II (Solubility experiment): better solubility

— patent US12715846B2, “Crystal form of quinolinone compound and use thereof” (SUNSHINE LAKE PHARMA CO., LTD., priority 2019, dated 2026)
